Read-outs that look alike come from different tables or passages of the source.
Key:
PI3Kγ [1] = biological target: T1, PI3Kγ (Homo sapiens, UniProt P48736); test: PI3Kγ inhibitory activity (PI3-kinase HTRF assay, inhibition ratio); type: biochemical; conditions: 0.5 h, compound at 10 μmol/L; read-out: PI3Kg Inhibition Ratio % (10 μM)
Summary of the method: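 Compound at 10 μmol/L preincubated 10 min with PI3Kγ and PIP2 substrate, then reacted with ATP for 30 minutes at room temperature; the compound, substrate and ATP figures as printed (40 μmol/L each) are solution concentrations. HTRF 665/620 nm ratio read after 18 hours. Inhibition ratio calculated against no-compound (100%) and no-enzyme (0%) controls.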

CYP3A4 = biological target: T2, CYP3A4 (Homo sapiens, UniProt P08684); test: CYP3A4 fluorescence MBI test; type: in vitro ADME; conditions: difference in IC50 with 0 or 30 minutes pre-reaction; CYP3A4 expressed in E. coli, substrate 7-BFC
T2 construct: host or cells: E. coli
T2 sequence (P08684 whole entry): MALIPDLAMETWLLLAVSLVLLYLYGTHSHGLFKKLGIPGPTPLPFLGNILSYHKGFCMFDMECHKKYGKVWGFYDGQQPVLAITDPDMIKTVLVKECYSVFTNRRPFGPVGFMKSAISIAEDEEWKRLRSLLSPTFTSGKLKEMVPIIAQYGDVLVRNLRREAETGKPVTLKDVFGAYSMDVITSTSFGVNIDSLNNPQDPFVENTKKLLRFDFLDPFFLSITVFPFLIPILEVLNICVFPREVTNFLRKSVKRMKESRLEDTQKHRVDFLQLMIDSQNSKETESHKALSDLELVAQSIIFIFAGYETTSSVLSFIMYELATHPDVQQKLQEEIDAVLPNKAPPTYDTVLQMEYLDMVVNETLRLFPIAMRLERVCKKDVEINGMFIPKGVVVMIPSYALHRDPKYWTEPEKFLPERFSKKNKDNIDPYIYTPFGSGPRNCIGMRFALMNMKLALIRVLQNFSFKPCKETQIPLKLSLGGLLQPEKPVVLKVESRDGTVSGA
Summary of the method: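 E. coli-expressed CYP3A4 debenzylating 5.6 μmol/L 7-BFC to fluorescent 7-HFC (Ex 420/Em 535 nm) in K-Pi pH 7.4 at 25° C, 15 min reaction. NADPH pre-incubation of 0 or 30 min, with 10-fold dilution before reaction. IC50 from 0.625–20 μmol/L (6 points); (+) for an IC50 shift ≥5 μmol/L, (−) for ≤3 μmol/L.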

[2] = test system: CYP1A2, CYP2C9, CYP2C19, CYP2D6 and CYP3A4 (one value for the five species); test: CYP inhibition test, five CYP species together (5CYPs_IC50; pooled human liver microsome); type: in vitro ADME
Excerpt: O-de-ethylation of 7-ethoxyresorufin (CYP1A2), methyl-hydroxylation of tolbutamide (CYP2C9), 4′-hydroxylation of mephenyloin (CYP2C19), O-demethylation of dextromethorphan (CYP2D6), and hydroxylation of terfenadine (CYP3A4), which are typical substrate for metabolic reactions of human main CYP5 molecular species (CYP1A2, 2C9, 2C19, 2D6, and 3A4), were adopted as indexes.
The reaction conditions are as follows: substrate: 0.5 μmol/L of ethoxyresorufin (CYP1A2), 100 μmol/L of tolbutamide (CYP2C9), 50 μmol/L of S-mephenyloin (CYP2C19), 5 μmol/L of dextromethorphan (CYP2D6), and 1 μmol/L of terfenadine (CYP3A4); reaction time; 15 minutes; reaction temperature: 37° C.; enzyme: pooled human liver microsome 0.2 mg protein/mL; test drug concentration: 1, 5, 10, and 20 μmol/L (4 points).
In a 96-well plate, as a reaction solution, five kinds of substrates, a human liver microsome, and a test drug were added to 50 mmol/L Hepes buffer solution in the aforementioned ratio. A coenzyme NADPH was added to start a metabolic reaction, which is an index. After reacting at 37° C. for 15 minutes, a solution of methanol/acetonitrile (1/1 (v/v)) was added to quench the reaction. After centrifugation at 3000 rpm for 15 minutes, resorufin (CYP1A2 metabolite) in the supernatant was quantitated with a fluorescence multilabel counter, and hydroxylated tolbutamide (CYP2C9 metabolite), 4′-hydroxylated mephenyloin (CYP2C19 metabolite), […], terfenadine in alcohol form (CYP3A4 metabolite) were quantitated with LC/MS/MS.
The case wherein only DMSO (a solvent which dissolved a drug) was added to a reaction system was defined as a control (100%). When a test drug solution was added, the remaining activity (%) at each concentration was calculated, and then IC50 was calculated with a concentration and an inhibition ratio by an inverse estimation using a logistic model.

[3] = Metabolic stability test (pooled human liver microsome); type: in vitro ADME; conditions: percentage of test compound remained after 30 minutes, pooled human liver microsome 0.5 mg protein/mL, 1 mmol/L NADPH, 37° C., compound 0.5 μM
Summary of the method: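 Pooled human liver microsomes (0.5 mg protein/mL) incubated with compound and 1 mmol/L NADPH at 37° C. in pH 7.4 Tris buffer for 0 or 30 min. Parent quantified by LC/MS/MS after methanol/acetonitrile quench; value is % remaining at 30 min versus 0 min.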

AKT phosphorylation = AKT phosphorylation inhibitory activity in MCP-1 stimulated THP-1 cells (sandwich ELISA); type: cell-based, Human; conditions: Homo sapiens, compound at 1 μmol/L, MCP-1 stimulation, read-out: AKT phosphorylation inhibition ratio
Description: (1) The AKT phosphorylation inhibitory activity of a compound was evaluated according to the following procedure. (2) Human monocyte-like cell line THP-1 was washed with RPMI-1640 media, incubated in the presence of 5% CO2 at 37° C. for 3 hours, washed with Hank's balanced salt solution (HBSS), adjusted to a cell concentration of 6.7×10^6/mL, and then used in an experiment. (3) 30 μL of the cell suspension and 60 μL of each compound solution containing 0.2% DMSO/HBSS were mixed and then preincubated at 37° C. for 5 minutes. 30 μL of HBSS containing 1.2 μg/mL of MCP-1 was added thereto and then incubated for 60 seconds at 37° C. (4) 30 μL of a cell lysate (the final concentrations: 20 mmol/L Tris-HCl (pH 7.5), 150 mmol/L NaCl, 1 mmol/L EDTA, 1 mmol/L EDTA, 1% Triton X-100, 2.5 mmol/L sodium pyrophosphate, 1 mmol/L β-glycerophosphate, 1 mmol/L Na3VO4, 1 μg/ml leupeptin, 50 nmol/L APMSF) was added thereto to lyse cells. (5) The amount of AKT phosphorylation in the cell solution was measured by sandwich ELISA method using anti-Phospho-Akt (Ser473) antibody and anti-AKT1 antibody. (6) Anti-Phospho-Akt (Ser473) antibodies or anti-AKT1 antibodies were immobilized onto the solid phase of a micro well plate. The prepared cell lysate was added to the micro well plate, incubated, and then washed with ELISA wash solution. (7) An anti-AKT1 antibody or anti-Phospho-Akt (Ser473) antibody, which forms a counterpart to an antibody immobilized on the solid phase, was added thereto, incubated, washed similarly, and then reacted with an HRP-labeled anti-mouse IgG antibody. (8) After incubating for 30 minutes and then washing similarly, 100 μL of TMB (3,3′,5,5″-tetramethylbenzidine) was added thereto, followed by reacting for 30 minutes. (9) 100 μL of stop solution was added to quench the color reaction, and then the absorbance at 450 nm was measured. (10) The amount of AKT phosphorylation in a sample in the absence of a compound was defined as 100% activity, and the amount of AKT phosphorylation in a sample in the absence of MCP-1 was defined as 0% activity to calculate an inhibition ratio of each compound. The measurement was performed for a 1 μmol/L solution of each compound.

PI3Kγ [4] = biological target: T1, PI3Kγ; test: PI3Kγ inhibitory activity (Ki value); type: biochemical; conditions: read-out: PI3Kγ Ki value
Description: The PI3Kγ inhibitory activity (Ki value) of a compound was evaluated according to the following procedure:
5 μL of a compound solution containing 10% DMSO and […] of a compound was changed to 5 μL of a compound solution containing 10% DMSO and either 200, 64, 20, 6.4, 2, 0.64, or 0.20 μmol/L of the compound (optionally, this is diluted to a lower concentration). Using a method similar to the method for measuring PI3Kγ inhibitory activity, inhibition ratios of PI3Kγ were measured in the presence of the compound at 50, 16, 5, 1.6, 0.5, 0.16, and 0.05 μmol/L (optionally, a lower concentration). Then an IC50 value was calculated by a logistic approximation method or the linear regression method using two concentrations that cross 50% inhibition. Separately, the ATP concentration in the reaction solution (40 μmol/L ATP, 10 mmol/L MgCl2, 5 mmol/L DTT) at the time of the start of a reaction in the absence of the compound was changed to 80, 40, 20, 10, 5, 2.5, 1.25, or 0.625 μmol/L. Then, HTRF ratios were measured by a similar method. The value obtained by subtracting the HTRF ratio at each ATP concentration from the HTRF ratio in the absence of PI-3 kinase y was defined as the value obtained by multiplying reaction rate (v) at each ATP concentration with a constant. The Michaelis-Menten constant Km was then calculated by the Lineweaver-Burk plot method. The Ki value of a compound was calculated by the following formula wherein “μM” denotes “μmol/L.”
Ki value ═IC50 value/(1+test ATP concentration (μM)/Km (μM))

hERG channel (IKr) = biological target: T3, hERG channel (IKr) (Homo sapiens, UniProt Q12809); test: hERG test (whole-cell patch-clamp, IKr in HEK293 cells); type: cell-based; conditions: human, HEK293 cells expressing hERG channel, pH 7.4, inhibition of maximum tail current (IKr), compound 1 μM
T3 construct: expressed in transfected cells; host or cells: HEK293
T3 sequence (Q12809 whole entry): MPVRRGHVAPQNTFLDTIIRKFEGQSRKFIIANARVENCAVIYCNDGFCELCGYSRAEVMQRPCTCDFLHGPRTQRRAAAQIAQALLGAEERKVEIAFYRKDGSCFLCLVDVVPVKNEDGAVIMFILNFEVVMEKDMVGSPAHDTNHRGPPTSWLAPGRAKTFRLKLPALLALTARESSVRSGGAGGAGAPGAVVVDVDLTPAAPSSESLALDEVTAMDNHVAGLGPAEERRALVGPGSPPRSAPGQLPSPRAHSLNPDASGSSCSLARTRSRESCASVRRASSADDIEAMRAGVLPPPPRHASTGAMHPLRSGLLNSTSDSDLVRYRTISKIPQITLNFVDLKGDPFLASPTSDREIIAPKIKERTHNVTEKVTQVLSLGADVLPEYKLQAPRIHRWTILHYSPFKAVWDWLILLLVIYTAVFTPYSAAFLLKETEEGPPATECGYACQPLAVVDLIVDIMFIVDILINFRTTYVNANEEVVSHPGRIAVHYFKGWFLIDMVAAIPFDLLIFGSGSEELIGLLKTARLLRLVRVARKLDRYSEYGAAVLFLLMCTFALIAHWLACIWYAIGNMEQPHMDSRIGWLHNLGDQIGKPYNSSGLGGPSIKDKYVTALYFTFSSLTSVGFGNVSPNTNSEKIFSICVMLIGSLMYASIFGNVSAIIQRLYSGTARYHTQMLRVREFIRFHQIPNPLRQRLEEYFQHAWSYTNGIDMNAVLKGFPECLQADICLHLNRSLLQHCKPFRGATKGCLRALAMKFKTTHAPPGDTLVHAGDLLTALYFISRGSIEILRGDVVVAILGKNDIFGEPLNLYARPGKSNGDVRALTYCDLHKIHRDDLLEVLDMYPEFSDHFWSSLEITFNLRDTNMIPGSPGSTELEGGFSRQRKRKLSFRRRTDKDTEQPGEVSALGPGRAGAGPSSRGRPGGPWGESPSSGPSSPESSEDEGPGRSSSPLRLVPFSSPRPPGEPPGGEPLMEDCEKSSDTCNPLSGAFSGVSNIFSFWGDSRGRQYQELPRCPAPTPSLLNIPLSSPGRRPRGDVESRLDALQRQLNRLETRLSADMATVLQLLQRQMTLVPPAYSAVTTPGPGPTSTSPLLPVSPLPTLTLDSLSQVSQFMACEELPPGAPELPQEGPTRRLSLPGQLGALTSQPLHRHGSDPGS
Excerpt: For the purpose of risk evaluation of QT interval extension of electrocardiogram, the activity on delayed rectification K^+ current (IKr), which plays an important role in a cardiac ventricle repolarization process, was examined using the HEK293 cell that was made to express human ether-a-go-go related gene (hERG) channel.
Using an automatic patch-clamp system (PatchXpress 7000A, Axon Instruments Inc.), by a whole-cell patch-clamp method, after the cell was maintained at a membrane potential of −80 mV, IKr induced upon applying depolarizing stimulation of +50 mV for 2 seconds and further applying repolarizing stimulation of −50 mV for 2 seconds was recorded. After generated electric current became stable, a test substance dissolved at an intended concentration in extracellular fluid (137 mmol/L NaCl, 4 mmol/L KCl, 1.8 mmol/L CaCl2.2H2O, 1 mmol/L MgCl2.6H2O, 10 mmol/L glucose, 10 mmol/L HEPES (4-(2-hydroxyethyl)-1-piperazineethanesulfonic acid), pH=7.4) was applied to the cell for 10 minutes under room temperature condition. From the obtained IKr, the absolute value of the maximum tail current was measured using analysis software (DataXpress ver. 1, Molecular Devices Corporation) and the value of the electric current in a maintained membrane potential as baseline. Moreover, an inhibition ratio for the maximum tail current prior to the application of the test substance was calculated and then compared with a group of media-application (0.1% dimethylsulfoxide solution) to evaluate influence of the test substance on IKr.

T1 sequence (P48736 whole entry, species assumed): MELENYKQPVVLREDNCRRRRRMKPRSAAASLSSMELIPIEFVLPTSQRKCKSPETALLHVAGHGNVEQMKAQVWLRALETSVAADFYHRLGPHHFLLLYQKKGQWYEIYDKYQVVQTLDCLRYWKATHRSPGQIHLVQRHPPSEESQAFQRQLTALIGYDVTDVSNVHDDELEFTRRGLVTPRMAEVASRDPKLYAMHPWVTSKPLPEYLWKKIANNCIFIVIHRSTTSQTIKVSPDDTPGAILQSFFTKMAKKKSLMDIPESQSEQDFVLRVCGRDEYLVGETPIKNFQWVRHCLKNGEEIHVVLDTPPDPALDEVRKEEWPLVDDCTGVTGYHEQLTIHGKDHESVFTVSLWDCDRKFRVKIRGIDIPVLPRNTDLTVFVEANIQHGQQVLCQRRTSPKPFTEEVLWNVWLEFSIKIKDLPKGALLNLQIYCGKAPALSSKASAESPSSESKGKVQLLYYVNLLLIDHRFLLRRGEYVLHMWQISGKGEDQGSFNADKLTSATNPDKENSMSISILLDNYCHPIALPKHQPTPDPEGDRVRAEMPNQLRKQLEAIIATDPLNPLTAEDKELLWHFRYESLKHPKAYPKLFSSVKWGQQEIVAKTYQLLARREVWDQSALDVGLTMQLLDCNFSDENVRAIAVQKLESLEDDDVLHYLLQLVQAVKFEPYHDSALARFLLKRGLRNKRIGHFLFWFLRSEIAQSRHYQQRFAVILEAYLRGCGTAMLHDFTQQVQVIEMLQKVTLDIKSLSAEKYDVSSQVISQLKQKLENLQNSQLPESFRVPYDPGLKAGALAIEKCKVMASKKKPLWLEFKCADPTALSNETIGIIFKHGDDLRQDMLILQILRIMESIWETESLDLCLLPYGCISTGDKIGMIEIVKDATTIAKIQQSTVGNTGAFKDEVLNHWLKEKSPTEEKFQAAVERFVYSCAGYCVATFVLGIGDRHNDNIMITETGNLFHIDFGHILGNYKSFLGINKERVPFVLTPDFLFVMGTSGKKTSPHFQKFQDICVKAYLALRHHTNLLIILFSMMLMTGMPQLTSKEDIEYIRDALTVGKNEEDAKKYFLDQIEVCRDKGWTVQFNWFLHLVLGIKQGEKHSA

Row | inhibition at 10 µM (PI3Kγ [1]) | IC50 at 15 min ([2]; human, microsomes) | Structure (SMILES) | MBI (CYP3A4) | further results
1 | 93% | ≥ 10 µM | COc1cc(N2CCc3nc(NC(=O)Nc4ccccc4C(C)=O)sc3C2)nc(OC)n1 [Compound I-9] | (−) (When 3 μmol/L or less, the compound is shown as (−)) | 
2 |  | > 20 µM | COc1cncc(C2CCc3nc(NC(=O)Nc4ccccc4C(=O)NC(C)C)sc3C2)c1 (stereo not drawn) [Compound I-81] | (−) (When 3 μmol/L or less, the compound is shown as (−)) | 
3 | ≥ 95% | ≥ 10 µM | CC(=O)c1cccc(-c2ccc3nc(NC(=O)Nc4ccccc4OCCC(C)C)sc3n2)c1 [Compound I-219] |  | 
4 | 85% |  | COc1cc(N2CCc3nc(NC(=O)Nc4ccccc4C(=O)O)sc3C2)nc(OC)n1.Cl.Cl [Compound I-5] | (−) (When 3 μmol/L or less, the compound is shown as (−)) | IC50 at 15 min ([2]; pooled human liver microsomes, one value for five species (CYP1A2, 2C9, 2C19, 2D6, 3A4), pooled human liver microsome 0.2 mg protein/mL, 15 minutes, 37° C., test drug 1-20 μmol/L, read-out: 5CYPs_IC50): ≥ 10 µM
5 | ≥ 95% | ≥ 10 µM | CC(C)NC(=O)c1ccccc1NC(=O)Nc1nc2c(s1)CN(c1ccc(C#N)cc1)CC2 [Compound I-209] | (−) (When 3 μmol/L or less, the compound is shown as (−)) | 
6 |  | ≥ 10 µM | COc1cc(N2CCc3nc(NC(=O)Nc4ccccc4C(=O)C(C)C)sc3C2)nc(OC)n1 [Compound I-64] |  | 
7 | ≥ 95% | ≥ 10 µM | COCCNC(=O)c1ccccc1NC(=O)Nc1nc2c(s1)CN(c1cc(OC)nc(OC)n1)CC2 [Compound I-86] | (−) (When 3 μmol/L or less, the compound is shown as (−)) | 
8 |  | ≥ 10 µM | COc1cc(N2CCc3nc(NC(=O)Nc4ccc(F)cc4C(=O)NC(C)C)sc3C2)cnc1OC [Compound I-105] |  | 
9 |  | ≥ 10 µM | COc1cc(N2CCc3nc(NC(=O)Nc4cn(C)nc4C(=O)NC(C)C)sc3C2)nc(OC)n1 [Compound I-106] |  | hLMS_ox(at 0.5 μM) % [3]: 83.9%
10 | 77% |  | Cc1nc(NC(=O)Nc2ccccc2C(=O)NC(C)C)sc1-c1csc(S(=O)(=O)N2CCC(O)CC2)c1 [Compound I-146] |  | inhibition at 1 µM (AKT phosphorylation): ≥ 95%; Ki (PI3Kγ [4]): 0.047 µM
11 |  | > 20 µM | CC(C)NC(=O)c1ccccc1NC(=O)Nc1nc2c(s1)CN(c1cncc(S(=O)(=O)N(C)C)c1)CC2 [Compound I-108] | (−) (When 3 μmol/L or less, the compound is shown as (−)) | 
12 |  | > 20 µM | COc1cc(N2CCc3nc(NC(=O)Nc4ccccc4C(O)CCC(C)C)sc3C2)nc(OC)n1 (stereo not drawn) [Compound I-117] |  | 
13 | ≥ 95% | ≥ 10 µM | CC(CO)NC(=O)c1ccccc1NC(=O)Nc1nc2c(s1)CN(c1cccc(F)c1)CC2 (stereo not drawn) [Compound I-115] |  | hLMS_ox(at 0.5 μM) % [3]: 84.7%
14 |  | ≥ 10 µM | CC(=O)c1cccc(-c2ccc3nc(NC(=O)Nc4ccccc4N4CCCC4=O)nn3c2)c1 [Compound I-224] |  | 
15 |  | ≥ 10 µM | COc1ccc(N2CCc3nc(NC(=O)Nc4ccccc4C(=O)NC(C)C)sc3C2)cn1 [Compound I-50] |  | 
16 |  | > 20 µM | CC(C)NC(=O)c1ccccc1NC(=O)Nc1nc2c(s1)CN(c1ccc(C(F)(F)F)cc1)CC2 [Compound I-208] |  | 
17 | ≥ 95% |  | CNS(=O)(=O)c1cncc(N2CCc3nc(NC(=O)Nc4ccccc4C(=O)NC(C)C)sc3C2)c1 [Compound I-129] | (−) (When 3 μmol/L or less, the compound is shown as (−)) | inhibition at 1 µM (AKT phosphorylation): ≥ 95%; inhibition at 10 min, 1 µM (hERG channel (IKr)): 5.5%

— patent publication US20120071475A1, “UREA DERIVATIVES HAVING PI3K-INHIBITING ACTIVITY” (SHIONOGI & CO., LTD., priority 2009, published 2012)
